Measured values: patent EP0433084A2, “Use of aromatese inhibitors for the reversal of female sexual phenotype in poultry” (MERCK & CO. INC., priority 1989, dated 1991)
Where a name gives a salt, the structure may show the parent alone. Read-outs that look alike come from different tables or passages of the source.

Assays:
[1] = system: F₁ Hybrids of Rhode Island Males Crossed With Plymouth Barred Rock Females; assay: Gonadal sex type of 14 day embryos after in ovo injection; format: in vivo, chicken
Procedure: Fertilized chicken embryos were injected on day 5 of incubation with the aromatase inhibitor 1,4,6-androstatriene-3,17-dione. The inhibitor was dissolved in 1,2-propane-diol at a concentration of 20 mg/ml and the injection volume was 100 µl producing a dose of 2 mg.

female Mullerian ducts = conditions: chick embryo; Huston et al., Gen. Comp. Endocrinol. 57: 88-102 (1985); cited from earlier work
[2] = system: Line 139 White Leghorn Chickens; conditions: for Female / Male / Und. (Undetermined): gonadal sex type at day 14, number of embryos; for Survived day 14: number of embryos
Procedure: (§1) The inhibitor was dissolved in saline at concentrations ranging form 1 mg/ml to 100 mg/ml and the injection volume ranged from 20 µl to 100 µl producing doses of 20 µg to 10 mg. Injections were made with a 23 G x 1 inch needle. A light source was used to orient the eggs and the injection is made under the air sac into the egg white surrounding the developing embryo. The hole was sealed with Scotch tape and the eggs were placed in a humidified, rocking incubator. At day fourteen of incubation, the embryos were removed form their shells and dissected to observe development of the gonads.

[3] = system: Line 67 White Leghorn embryos; conditions: in vivo
Procedure: as §1

in vivo = conditions: chicken, embryos in ovo, %Hatched
Procedure: as §1
(§2) The procedures are the same as described above.

[4] = system: Abor Acre x Abor Acre Hybrid Broiler Chickens; assay: in vivo
Procedure: as §1, §2

turkey embryos = system: turkey embryos
Procedure: A light source was used to orient the eggs and the injection is made under the air sac into the egg white surrounding the developing embryo. The hole was sealed with Scotch tape and the eggs were placed in a humidified, rocking incubator. The birds were allowed to hatch and the phenotypic and genotypic sex determined.

[5] = system: autosexing strains of chickens
Procedure: (§3) To more easily monitor changes in development as a function of age according to genetic sex two different autosexing strains of chickens were treated as above. All chickens were allowed to reach sexual maturity. […] One of the three was killed after 24 weeks and the remaining two (tag numbers 1977 and 1981) were killed after 31 weeks. Prior to killing blood was taken from each animal and used to determine sex steroid levels. At the time of killing the gonads were removed and fixed for histology in Bouin's fixative.
The right gonad and oviduct of the normal female begins to regress during embryogenesis and at maturity females have a single ovary and oviduct. The remaining left ovary consists of a series of follicles staged to mature at daily intervals.

[6] = system: hybrids used in Example 3; conditions: for Estradiol / Testosterone: serum
Procedure: as §3
Estradiol and testosterone levels were determined in serum samples using commercial RIA assay kits which are well known in the art.

[7] = system: gonads from control males and treated females; conditions: in vivo
Procedure: Histological examination of gonads from control males and treated females at 31 weeks of age was carried out on tissue fixed in Bouin's solution prior to embedding in paraffin. Sections were stained with hematoxylin and eosin.

[8] = gonadal sex type at day 14, number of embryos, 2.0 mg injected on day 5
[9] = Experiment 1, 20 µg injected on day 5
[10] = Experiment 1, 100 µg injected on day 5
[11] = Experiment 1, 2 mg injected on day 5
[12] = Experiment 1, 10 mg injected on day 5, none survived
[13] = Experiment 2, 100 µg injected on day 4
[14] = Experiment 2, 1 mg injected on day 4
[15] = Experiment 3, 100 µg injected on day 5
[16] = Experiment 3, 1 mg injected on day 5
[17] = animal 1977, treated genetic female, phenotypic male, 31 weeks
[18] = animal 1978, treated genetic male
[19] = animal 1981, treated genetic female, phenotypic male, 31 weeks

C[C@]12C=CC(=O)C=C1C=C[C@@H]1[C@@H]2CC[C@]2(C)C(=O)CC[C@@H]12 [1,4,6-androstatriene-3,17-dione]
birds being males ([1]; 2 mg injected on day 5, gonads at day 14): 100%
Female [1, 8]: 0
Male [1, 8]: 5
Survived day 14 ([1]; number of embryos, 2.0 mg in 1,2-propane-diol injected on day 5): 5

CC/C(=C(\c1ccccc1)c1ccc(OCCN(C)C)cc1)c1ccccc1 [tamoxifen]
effect on the female Mullerian ducts (female Mullerian ducts): little effect

O=C(c1ccc(OCCN2CCCC2)cc1)c1c(-c2ccc(O)cc2)sc2cc(O)ccc12 [LY117018]
effect on the female Mullerian ducts (female Mullerian ducts): little effect

N#Cc1ccc(C2CCCc3cncn32)cc1 (racemic) [± 5-(p-cyanophenyl)-5,6,7,8-tetrahydroimidazo [1,5-α] pyridine hydrochloride]
Female [2, 9]: 2
Male [2, 9]: 0
Und. (Undetermined) [2, 9]: 0
Female [2, 10]: 0
Male [2, 10]: 3
Und. (Undetermined) [2, 10]: 0
Female [2, 11]: 0
Male [2, 11]: 2
Und. (Undetermined) [2, 11]: 0
Female [2, 12]: 0
Male [2, 12]: 0
Und. (Undetermined) [2, 12]: 0
Female [2, 13]: 0
Male [2, 13]: 3
Und. (Undetermined) [2, 13]: 1
Female [2, 14]: 0
Male [2, 14]: 4
Und. (Undetermined) [2, 14]: 0
Female [2, 15]: 0
Male [2, 15]: 4
Und. (Undetermined) [2, 15]: 1
Female [2, 16]: 0
Male [2, 16]: 5
Und. (Undetermined) [2, 16]: 0
Survived day 14 ([2]; Experiment 1, 20 µg injected on day 5, 4 injected): 2
Survived day 14 ([2]; Experiment 1, 100 µg injected on day 5, 4 injected): 3
Survived day 14 ([2]; Experiment 1, 2 mg injected on day 5, 4 injected): 2
Survived day 14 ([2]; Experiment 1, 10 mg injected on day 5, 4 injected): 0
Survived day 14 ([2]; Experiment 2, 100 µg injected on day 4, 5 injected): 4
Survived day 14 ([2]; Experiment 2, 1 mg injected on day 4, 6 injected): 4
Survived day 14 ([2]; Experiment 3, 100 µg injected on day 5, 7 injected): 5
Survived day 14 ([2]; Experiment 3, 1 mg injected on day 5, 7 injected): 5
vent sexed as males [3]: all birds
survival (in vivo; 0.01 mg, 10 µg injected on day 5): 72%
survival (in vivo; 0.05 mg, 50 µg injected on day 0): 40%
survival (in vivo; 0.05 mg, 50 µg injected on day 5): 67%
survival (in vivo; 0.1 mg, 100 µg injected on day 5): 69%
Female ([4]; 10 µg injected on day 5): 36
Male ([4]; 10 µg injected on day 5): 60
Female ([4]; 50 µg injected on day 0): 2
Male ([4]; 50 µg injected on day 0): 45
Female ([4]; 50 µg injected on day 5): 0
Male ([4]; 50 µg injected on day 5): 88
Female ([4]; 100 µg injected on day 5): 0
Male ([4]; 100 µg injected on day 5): 91
phenotype of unhatched embryos (turkey embryos; 1 mg, 2 pipped embryos and 2 embryos that died after 25 and 27 days of incubation): All embryos were phenotypic male
vent sexed as male (turkey embryos; 1 mg, of 4 hatched birds, 2 feather-sexed as female and 2 as male): 4
birds hatched (turkey embryos; eggs inoculated with 1 mg, day 4 or 5 of incubation): Four
abdominal fat of treated females ([5]; 31 week old, abdominal cavities opened, compared with control females): absence of abdominal fat
treated females developed a male phenotype ([5]; Sex-Sal autosexing strain, injected day 4 or 5, at sexual maturity): one of two
appearance and behavior of treated females ([5]; by seven months of age, injected day 4 or 5): obviously masculine in appearance and behavior
adult females developed male phenotypes ([5]; hybrids used in Example 3, injected day 4 or 5, at sexual maturity): three of four
presence of testes in treated females ([5]; two gonads without oviducts, at necropsy): three of the four
serum hormone profiles of treated females ([6]; 31 week old): resembling adult males
Estradiol ([6]; animal 1976, treated genetic female that did not respond, phenotypically female): 57 ng/mL
Estradiol [6, 17]: 12 ng/mL
Testosterone [6, 17]: 224 ng/mL
Estradiol [6, 18]: 5 ng/mL
Testosterone [6, 18]: 412 ng/mL
Estradiol [6, 19]: 2 ng/mL
Testosterone [6, 19]: 109 ng/mL
seminiferous tubules in gonads of treated females [7]: present in both the left and right gonads

C#C[C@]1(O)CC[C@H]2[C@@H]3CCC4=CC(=O)CC[C@@H]4[C@H]3CC[C@@]21C [norethindrone]
effect on the female Mullerian ducts (female Mullerian ducts): partial regression of the upper end of the left Mullerian duct as well as complete loss of the lower ends of both ducts
